The results in this text go back to US20150190416A1, “FILAGGRIN PRODUCTION PROMOTER, THERAPEUTIC AGENT FOR DISEASES ASSOCIATED WITH REDUCTION IN PRODUCTION OF FILAGGRIN, AND METHOD FOR SCREENING FOR SAID THERAPEUTIC AGENT” (KYOTO UNIVERSITY, priority 2012, published 2015).

Assay type in all cases: cell-based, human
The subject of one experiment is FLG monomer. Kind of experiment: FLG monomer in three-dimensional cultured skin, Western blotting (Example 11). As to conditions: 1 μM, immunoblotting. How it is done:
In this example, the expression-increasing effect of Compound 1 on FLG monomer was examined by using a three-dimensional cultured skin. The expression of the FLG monomer was confirmed by Western blotting.
In this example, the same procedures as those in the steps 1) to 3) of Example 10 were conducted. It should be noted that as a medicament, D) Comparative Compound 3 (M344) was used, as well as A) Compound 1 and C) Comparative Compound 2 of Example 10.
4) The three-dimensional cultured skin obtained in the same manner as in the steps 1) to 3) of Example 10 was recovered, and was cut into pieces with scissors. Then, 100 μl of Lysis buffer (0.1 M Tris-HCl (pH 9.0), 6 M Urea, 1% 2-mercapto-ethanol, 1% SDS, 1 mM EDTA, and Protease inhibitor cocktail) were added and the cells were homogenized with an electrically powered pestle. The homogenized cells were centrifuged at 15,000 rpm at 4° C. for 20 minutes, and the supernatant was recovered to be used as a sample for measurement. The total protein in the sample was quantified by using a protein assay reagent (Bio-Rad Laboratories, Inc.) according to the manufacturer's protocol. The protein was adjusted so that each sample contained 15 μg protein/lane, and the samples were subjected to electrophoresis by SDS-PAGE (Invitrogen, NuPAE Novex Bis-Tris mini Gel 4 to 12%) under the conditions of 100 V and 2 hours. As a marker, Precision Plus Protein Standards (Bio-Rad Laboratories, Inc.) was used. The proteins separated by the electrophoresis were transferred to a PVDF membrane (blotting), and the expression of FLG monomer was confirmed by using an anti-FLG antibody (Filaggrin AKH1, Santa Crus). At that time, Anti-mouse IgG-HRP (GE Healthcare) was used as a secondary antibody, and Amersham ECL Plus Western Blotting Detection Reagents (GE Healthcare) was used as a color developer.

Experiment [1] deals with GPR142. As to the kind of experiment: Action on adenylate cyclase activity (cAMP) in GPR142-overexpressing HEK293T cells (Examples 8 and 9). As to conditions: GPR142-overexpressing HEK293T cells, 1,000 nM, forskolin 10 μM, IBMX 1 mM, 20 minutes. How it is done: In this example, the cAMP production-suppressing effect of Compound 1 was confirmed.
1) 6×10^4 cells/well of HEK293T cells were plated on a collagen-coated 24-well plate, a culture medium containing DMEM medium (Invitrogen) supplemented with penicillin (50 μg/ml), streptomycin (50 μg/ml), and fetal bovine serum (FBS) (10%, v/v) was added to the plate, and the cells were cultured under the conditions of 37° C. and 5% CO2.
2) A GPR142PCXN mammalian expression vector was prepared in the same manner as in the step 2) of Example 7.
3) After culture for 1 day under the conditions of the step 1), HEK293T cells were transfected with 0.2 μg of the GPR142PCXN mammalian expression vector per well by using a transfection reagent Fugene™ HD (Promega Corporation) according to the manufacturer's protocol. As a control, cells transfected only with the PCXN mammalian expression vector were used.
4) After culture for 1 day after the transfection described above, 1 mM of isobutylmethylxanthine (IBMX), which was a cAMP phosphodiesterase inhibitory substance, was added to HEK293T cells, and thereafter, the cells were cultured for 10 minutes at 37° C.
5) Next, the medium was exchanged for the culture medium to which 0.1 nM to 1000 nM of a DMSO solution of Compound 1, 10 μM of forskolin, and 1 mM of IBMX per well were added, and the cells were further cultured for 20 minutes at 37° C. As a control, a solvent (vehicle), 10 μM of forskolin, and 1 mM of IBMX were added.
6) The cells cultured in the step 5) were lysed by 0.1 mol/L of HCl. The cAMP concentration within the cells was measured by using Cyclic AMP EIA Kit (Cayman Chemical Company) according to the manufacturer's protocol. The result is shown as the ratio (%) of the cAMP concentration in the cells treated with Compound 1 with respect to the cAMP concentration in the control example defined as 100%.
In this example, the cAMP production-suppressing effect of Compound 2 or 3 was confirmed.
HEK293T cells were cultured in the same manner as in the steps 1) to 4) of Example 8. Next, the cells were cultured in the same manner as in the step 5) of Example 8 except that, in the step 5) of Example 8, each of a methanol solution of Compound 3, a DMSO solution of Compound 2, and a DMSO solution of Comparative Compound 2 was used at 1,000 nM per well instead of Compound 1. The cAMP concentration in the cultured cells was measured in the same manner as in the step 6) of Example 8.

Experiment [2] deals with GPR142. Kind of experiment: Blocking effect by GPR142 RNAi in NHEK cells (Examples 5 and 6). As to conditions: GPR142 siRNA, compound 10 nM, 1 day. Here is the method: In this example, it was confirmed that the expression-inducing effects of Compound 1 on GPR142 mRNA and FLG mRNA in NHEK cells were blocked by GPR142 RNAi.
1) 5×10^4 cells/well of NHEK cells (Invitrogen) were plated on a 24-well plate. Then, 500 μl of a culture medium containing a medium for proliferating normal human epidermal keratinocytes (HuMedia-KG2, KURABO INDUSTRIES LTD.) supplemented with hEGF (0.1 ng/ml), insulin (10 μg/ml), hydrocortisone (0.5 μg/ml), gentamycin (50 μg/ml), amphotericin B (50 ng/ml), and bovine brain pituitary extract (BPE) (0.4%, v/v) were added to the plate, and the cells were cultured under the conditions of 37° C. and 5% CO2.
2) After culture under the conditions of the step 1) for 1 day, the medium was exchanged for the culture medium of the step 1) to which CaCl2 (1.2 mM in terms of Ca) was further added as Ca, and culture was conducted under the conditions of 37° C. and 5% CO2. After culture for 1 day, the medium was exchanged for the same culture medium containing Ca, and culture was further conducted for 1 day.
3) The NHEK cells of the step 2) were transfected with 50 nM of siRNA per well of the 24-well plate by using a transfection reagent, Lipofectamine RNA Max (Invitrogen) according to the manufacturer's protocol.
The sequences of the used three kinds of GPR142 siRNAs and the sequences of the used control siRNAs (all the siRNAs are manufactured by Invitrogen) are described below.
4) After culture for 1 day after the transfection with siRNA in the step 3), the medium was exchanged for the culture medium of the step 1) to which a DMSO solution of Compound 1 was added at 10 nM per well, and culture was further conducted for 1 day. As a control, a solvent only (vehicle) was added.
5) An extraction reagent (TRIzol™, Invitrogen) was used, and according to the manufacturer's protocol, total RNA was extracted from each of cells treated with the medicament. A reverse transcriptase reagent (Prime Script™, Takara) was used, and according to the manufacturer's protocol, cDNA was prepared from the total RNA. Next, real-time PCR was conducted by using the following primers and SYBR™ Premix Ex Taq (Takara) with a CFX96 real-time PCR instrument according to the manufacturer's protocol, and the amounts of GPR142 mRNA and FLG mRNA expression were measured. The result of measurement is shown as a GAPDH ratio.
In this example, it was confirmed that the expression-inducing effects of Compound 2 or 3 on GPR142 mRNA and FLG mRNA in NHEK cells were blocked by GPR142 RNAi.
NHEK cells were transfected in the same manner as in Example 5 except that, in the steps 1) to 3) of Example 5, two kinds of GPR142 siRNAs and two kinds of control siRNAs, i.e., GPR142-1 (#HSS139493) and GPR142-3 (#HSS179846) and Control-1 (LOW GC, #129350-200), and Control-3 (HIGH GC, #129350-400) were used as GPR142 siRNAs and control siRNAs, respectively. After culture for 1 day after the transfection was conducted in the same manner as in the step 4) of Example 5, the medium was exchanged for the culture medium to which each of a DMSO solution of Compound 1, a DMSO solution of Compound 2, or a methanol solution of Compound 3 was added at 10 nM per well, and culture was further conducted for 1 day. As a control, a solvent only (vehicle) was added. Regarding each of cells treated with the medicament, real-time PCR was conducted to measure the amounts of GPR142 mRNA and FLG mRNA in the same manner as in the step 5) of Example 5. The results of the measurement are shown as a GAPDH ratio.

As to `CN(C)c1ccc(C(=O)NCCCCCCC(=O)NO)cc1` [Comparative Compound 3, 4-Dimethylamino-N-(6-hydroxycarbamoylhexyl)benzamide, reference compound], the “production of FLG monomer” value in the experiment with FLG monomer is “clear production of FLG monomer was not observed”.

As for `COC(=O)CNC(Cc1ccccc1)C(=O)Nc1cc(-c2ccncc2)nn1C.Cl.Cl` (stereo not drawn) [Compound 3, Methyl 2-(1-(1-methyl-3-(pyridine-4-yl)-1H-pyrazol-5-ylamino)-1-oxo-3-phenylpropan-2-ylamino)acetate dihydrochloride], the “decrease of cAMP production” value with GPR142 [1] is given as “about 24%”. The “induction of FLG mRNA expression: dependence on GPR142” value in the experiment on GPR142 [2] is given as “mediated by GPR142”.
